Experiments:
Histamine H1 receptor = Histamine H1 receptor (Homo sapiens, UniProt P35367); test: GPCRScan assay: inhibition of H1; parameters: radioligand conc. used [nm] 0.6 – 2.0, parental cells stable HEK
[1] = molecular target: Tyrosine-protein kinase Tec (Homo sapiens) (UniProt P42680); conditions: Compound concentration 1000.0 nM
[2] = molecular target: LIM domain kinase 2 (Homo sapiens) (UniProt P53671); conditions: Compound concentration 1000.0 nM
[3] = molecular target: Dual specificity testis-specific protein kinase 1 (Homo sapiens) (UniProt Q15569); conditions: Compound concentration 1000.0 nM
[4] = molecular target: Serine/threonine-protein kinase Nek4 (Homo sapiens) (UniProt P51957); conditions: Compound concentration 1000.0 nM
[5] = molecular target: Ribosomal protein S6 kinase alpha-2 (Homo sapiens) (UniProt Q15349); conditions: Compound concentration 1000.0 nM
[6] = molecular target: Vascular endothelial growth factor receptor 2 (Homo sapiens) (UniProt P35968); conditions: Compound concentration 1000.0 nM
[7] = molecular target: Dual specificity protein kinase CLK1 (Homo sapiens) (UniProt P49759); conditions: Compound concentration 1000.0 nM
[8] = molecular target: Receptor-interacting serine/threonine-protein kinase 4 (Homo sapiens) (UniProt P57078); conditions: Compound concentration 1000.0 nM
[9] = molecular target: Tyrosine-protein kinase Lck (Homo sapiens) (UniProt P06239); conditions: Compound concentration 1000.0 nM
[10] = molecular target: Serine/threonine-protein kinase 38 (Homo sapiens) (UniProt Q15208); conditions: Compound concentration 1000.0 nM
[11] = system: Epidermal growth factor receptor (Homo sapiens), P00533 [UNDEFINED MUTATION]; conditions: Compound concentration 1000.0 nM
[12] = molecular target: Aurora kinase A (Homo sapiens) (UniProt O14965); conditions: Compound concentration 1000.0 nM
[13] = molecular target: Serine/threonine-protein kinase SIK1 (Homo sapiens) (UniProt P57059); conditions: Compound concentration 1000.0 nM
[14] = molecular target: Muscarinic acetylcholine receptor M1 (Homo sapiens) (UniProt P11229); conditions: Compound concentration 10.0 uM
[15] = molecular target: Serine/threonine-protein kinase ULK2 (Homo sapiens) (UniProt Q8IYT8); conditions: Compound concentration 1000.0 nM
[16] = molecular target: Serine/threonine-protein kinase/endoribonuclease IRE1 (Homo sapiens) (UniProt O75460); conditions: Compound concentration 1000.0 nM
[17] = molecular target: Serine/threonine-protein kinase PAK 5 (Homo sapiens) (UniProt Q9P286); conditions: Compound concentration 1000.0 nM
[18] = molecular target: Sodium-dependent dopamine transporter (Homo sapiens) (UniProt Q01959); conditions: Compound concentration 10.0 uM
[19] = molecular target: Calcium/calmodulin-dependent protein kinase kinase 1 (Homo sapiens) (UniProt Q8N5S9); conditions: Compound concentration 1000.0 nM
[20] = molecular target: Dual specificity mitogen-activated protein kinase kinase 4 (Homo sapiens) (UniProt P45985); conditions: Compound concentration 1000.0 nM
[21] = molecular target: Cyclin-dependent kinase 15 (Homo sapiens) (UniProt Q96Q40); conditions: Compound concentration 1000.0 nM
[22] = molecular target: Phosphatidylinositol 4-phosphate 3-kinase C2 domain-containing subunit beta (Homo sapiens) (UniProt O00750); conditions: Compound concentration 1000.0 nM
[23] = system: Epidermal growth factor receptor (Homo sapiens), P00533 [T790M]; conditions: Compound concentration 1000.0 nM
[24] = molecular target: Ribosomal protein S6 kinase alpha-1 (Homo sapiens) (UniProt Q15418); conditions: Compound concentration 1000.0 nM
[25] = molecular target: Macrophage colony-stimulating factor 1 receptor (Homo sapiens) (UniProt P07333); conditions: Compound concentration 1000.0 nM
[26] = molecular target: Serine/threonine-protein kinase 38-like (Homo sapiens) (UniProt Q9Y2H1); conditions: Compound concentration 1000.0 nM
[27] = molecular target: Receptor tyrosine-protein kinase erbB-4 (Homo sapiens) (UniProt Q15303); conditions: Compound concentration 1000.0 nM
[28] = molecular target: Serine/threonine-protein kinase D1 (Homo sapiens) (UniProt Q15139); conditions: Compound concentration 1000.0 nM
[29] = molecular target: Phosphatidylinositol 3-kinase catalytic subunit type 3 (Homo sapiens) (UniProt Q8NEB9); conditions: Compound concentration 1000.0 nM
[30] = molecular target: Serine/threonine-protein kinase SIK2 (Homo sapiens) (UniProt Q9H0K1); conditions: Compound concentration 1000.0 nM
[31] = molecular target: Serine/threonine-protein kinase NIM1 (Homo sapiens) (UniProt Q8IY84); conditions: Compound concentration 1000.0 nM
[32] = molecular target: Phosphatidylinositol 4,5-bisphosphate 3-kinase catalytic subunit delta isoform (Homo sapiens) (UniProt O00329); conditions: Compound concentration 1000.0 nM
[33] = molecular target: Epidermal growth factor receptor (Homo sapiens) (UniProt P00533); conditions: Compound concentration 1000.0 nM
[34] = molecular target: Cyclin-G-associated kinase (Homo sapiens) (UniProt O14976); conditions: Compound concentration 1000.0 nM
[35] = system: Receptor-type tyrosine-protein kinase FLT3 (Homo sapiens), P36888 [D835H]; conditions: Compound concentration 1000.0 nM
[36] = molecular target: Glycogen synthase kinase-3 beta (Homo sapiens) (UniProt P49841); conditions: Compound concentration 1000.0 nM
[37] = molecular target: Calcium/calmodulin-dependent protein kinase type II subunit alpha (Homo sapiens) (UniProt Q9UQM7); conditions: Compound concentration 1000.0 nM
[38] = molecular target: Mitogen-activated protein kinase 11 (Homo sapiens) (UniProt Q15759); conditions: Compound concentration 1000.0 nM
[39] = molecular target: Macrophage colony-stimulating factor 1 receptor (Homo sapiens) (UniProt P07333); conditions: Compound concentration 1000.0 nM; remark: listed apart in the source
[40] = molecular target: Muscle, skeletal receptor tyrosine-protein kinase (Homo sapiens) (UniProt O15146); conditions: Compound concentration 1000.0 nM
[41] = molecular target: Mitogen-activated protein kinase 3 (Homo sapiens) (UniProt P27361); conditions: Compound concentration 1000.0 nM
[42] = system: Epidermal growth factor receptor (Homo sapiens), P00533 [L858R,T790M]; conditions: Compound concentration 1000.0 nM
[43] = molecular target: Ribosomal protein S6 kinase alpha-5 (Homo sapiens) (UniProt O75582); conditions: Compound concentration 1000.0 nM
[44] = molecular target: 5-hydroxytryptamine receptor 1D (Homo sapiens) (UniProt P28221); conditions: Compound concentration 10.0 uM

Chain of Macrophage colony-stimulating factor 1 receptor (Homo sapiens) (P07333 whole entry): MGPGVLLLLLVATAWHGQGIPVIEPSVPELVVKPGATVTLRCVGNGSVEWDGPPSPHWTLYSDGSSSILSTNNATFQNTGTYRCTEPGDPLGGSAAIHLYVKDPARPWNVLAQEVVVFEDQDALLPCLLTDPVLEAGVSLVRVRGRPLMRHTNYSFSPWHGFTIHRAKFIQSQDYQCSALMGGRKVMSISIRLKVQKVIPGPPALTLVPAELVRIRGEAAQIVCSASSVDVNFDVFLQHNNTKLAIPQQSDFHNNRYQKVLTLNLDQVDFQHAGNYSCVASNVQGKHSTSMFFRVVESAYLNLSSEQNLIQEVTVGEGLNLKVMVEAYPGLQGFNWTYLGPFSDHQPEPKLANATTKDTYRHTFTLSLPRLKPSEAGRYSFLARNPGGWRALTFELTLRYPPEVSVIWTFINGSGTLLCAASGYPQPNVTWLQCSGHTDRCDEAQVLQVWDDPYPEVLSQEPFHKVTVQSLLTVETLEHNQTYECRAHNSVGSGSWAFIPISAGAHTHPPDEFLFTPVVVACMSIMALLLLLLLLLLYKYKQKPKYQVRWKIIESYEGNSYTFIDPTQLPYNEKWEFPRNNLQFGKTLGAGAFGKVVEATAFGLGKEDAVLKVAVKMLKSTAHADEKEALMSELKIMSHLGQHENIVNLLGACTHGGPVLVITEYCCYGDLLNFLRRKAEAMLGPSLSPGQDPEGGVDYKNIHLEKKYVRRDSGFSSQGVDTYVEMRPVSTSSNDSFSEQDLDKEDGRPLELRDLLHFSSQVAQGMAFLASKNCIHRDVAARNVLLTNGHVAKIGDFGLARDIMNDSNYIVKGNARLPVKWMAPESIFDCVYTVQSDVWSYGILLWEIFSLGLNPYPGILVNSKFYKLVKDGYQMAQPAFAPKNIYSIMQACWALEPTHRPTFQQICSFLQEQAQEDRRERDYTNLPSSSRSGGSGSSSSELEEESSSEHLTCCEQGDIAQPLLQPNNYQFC
Chain of Phosphatidylinositol 3-kinase catalytic subunit type 3 (Homo sapiens) (Q8NEB9 whole entry): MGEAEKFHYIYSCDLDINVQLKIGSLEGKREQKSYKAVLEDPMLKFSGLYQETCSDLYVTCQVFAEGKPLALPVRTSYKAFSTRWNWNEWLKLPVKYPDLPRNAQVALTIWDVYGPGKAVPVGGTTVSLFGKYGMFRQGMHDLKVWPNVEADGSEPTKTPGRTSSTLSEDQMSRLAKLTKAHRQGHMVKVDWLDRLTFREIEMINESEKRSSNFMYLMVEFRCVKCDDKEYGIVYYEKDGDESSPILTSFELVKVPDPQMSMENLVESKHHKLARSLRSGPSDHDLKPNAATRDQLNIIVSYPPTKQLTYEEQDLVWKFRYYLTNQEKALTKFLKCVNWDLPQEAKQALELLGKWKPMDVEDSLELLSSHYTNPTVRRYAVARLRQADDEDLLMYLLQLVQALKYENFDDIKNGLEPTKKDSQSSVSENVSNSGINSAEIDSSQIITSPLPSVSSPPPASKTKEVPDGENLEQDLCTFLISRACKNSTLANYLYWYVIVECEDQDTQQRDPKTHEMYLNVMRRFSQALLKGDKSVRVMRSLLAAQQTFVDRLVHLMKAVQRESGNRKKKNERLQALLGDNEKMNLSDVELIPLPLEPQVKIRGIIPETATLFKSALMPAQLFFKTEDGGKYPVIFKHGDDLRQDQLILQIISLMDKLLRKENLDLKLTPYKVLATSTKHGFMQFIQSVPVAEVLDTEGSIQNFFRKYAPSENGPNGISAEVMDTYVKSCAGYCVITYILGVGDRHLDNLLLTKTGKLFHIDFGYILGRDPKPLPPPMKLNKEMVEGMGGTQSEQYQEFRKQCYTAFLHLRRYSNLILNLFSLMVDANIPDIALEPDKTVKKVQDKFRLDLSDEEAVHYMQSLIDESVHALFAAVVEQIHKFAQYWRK
Chain of Receptor tyrosine-protein kinase erbB-4 (Homo sapiens) (Q15303 whole entry): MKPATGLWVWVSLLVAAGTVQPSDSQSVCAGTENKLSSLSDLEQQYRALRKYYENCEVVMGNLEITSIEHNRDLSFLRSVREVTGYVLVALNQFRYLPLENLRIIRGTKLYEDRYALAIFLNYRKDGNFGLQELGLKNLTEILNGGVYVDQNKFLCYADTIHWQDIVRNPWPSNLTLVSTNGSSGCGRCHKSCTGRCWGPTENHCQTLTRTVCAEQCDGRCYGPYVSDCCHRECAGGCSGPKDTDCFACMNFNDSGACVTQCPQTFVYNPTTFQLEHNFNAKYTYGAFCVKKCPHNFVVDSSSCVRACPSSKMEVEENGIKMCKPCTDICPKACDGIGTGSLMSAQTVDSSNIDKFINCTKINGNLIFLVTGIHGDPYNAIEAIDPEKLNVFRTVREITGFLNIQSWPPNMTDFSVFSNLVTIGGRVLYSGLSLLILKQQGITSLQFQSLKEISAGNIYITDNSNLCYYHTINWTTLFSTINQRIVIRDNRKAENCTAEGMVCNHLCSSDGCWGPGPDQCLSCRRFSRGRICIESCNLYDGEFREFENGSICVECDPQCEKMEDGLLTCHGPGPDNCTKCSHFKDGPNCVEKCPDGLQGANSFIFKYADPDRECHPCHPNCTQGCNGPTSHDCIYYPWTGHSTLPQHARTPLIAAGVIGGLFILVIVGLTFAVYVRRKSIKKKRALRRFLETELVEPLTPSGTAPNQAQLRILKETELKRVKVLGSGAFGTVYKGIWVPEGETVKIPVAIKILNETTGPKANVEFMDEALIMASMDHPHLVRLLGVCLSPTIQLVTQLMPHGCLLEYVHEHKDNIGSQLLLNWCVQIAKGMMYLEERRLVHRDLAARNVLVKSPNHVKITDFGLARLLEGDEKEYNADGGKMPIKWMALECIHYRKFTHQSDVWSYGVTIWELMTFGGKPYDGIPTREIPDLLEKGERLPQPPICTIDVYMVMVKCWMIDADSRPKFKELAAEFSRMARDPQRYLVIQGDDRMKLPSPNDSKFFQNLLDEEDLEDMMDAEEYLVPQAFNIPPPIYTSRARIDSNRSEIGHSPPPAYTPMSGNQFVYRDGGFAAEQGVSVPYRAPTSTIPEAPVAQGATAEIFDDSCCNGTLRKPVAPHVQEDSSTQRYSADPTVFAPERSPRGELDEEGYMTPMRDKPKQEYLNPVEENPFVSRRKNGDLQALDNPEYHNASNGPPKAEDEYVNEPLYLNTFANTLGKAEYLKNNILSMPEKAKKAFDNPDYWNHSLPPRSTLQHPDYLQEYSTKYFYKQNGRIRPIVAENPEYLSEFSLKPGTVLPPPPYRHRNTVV
Chain of Serine/threonine-protein kinase ULK2 (Homo sapiens) (Q8IYT8 whole entry): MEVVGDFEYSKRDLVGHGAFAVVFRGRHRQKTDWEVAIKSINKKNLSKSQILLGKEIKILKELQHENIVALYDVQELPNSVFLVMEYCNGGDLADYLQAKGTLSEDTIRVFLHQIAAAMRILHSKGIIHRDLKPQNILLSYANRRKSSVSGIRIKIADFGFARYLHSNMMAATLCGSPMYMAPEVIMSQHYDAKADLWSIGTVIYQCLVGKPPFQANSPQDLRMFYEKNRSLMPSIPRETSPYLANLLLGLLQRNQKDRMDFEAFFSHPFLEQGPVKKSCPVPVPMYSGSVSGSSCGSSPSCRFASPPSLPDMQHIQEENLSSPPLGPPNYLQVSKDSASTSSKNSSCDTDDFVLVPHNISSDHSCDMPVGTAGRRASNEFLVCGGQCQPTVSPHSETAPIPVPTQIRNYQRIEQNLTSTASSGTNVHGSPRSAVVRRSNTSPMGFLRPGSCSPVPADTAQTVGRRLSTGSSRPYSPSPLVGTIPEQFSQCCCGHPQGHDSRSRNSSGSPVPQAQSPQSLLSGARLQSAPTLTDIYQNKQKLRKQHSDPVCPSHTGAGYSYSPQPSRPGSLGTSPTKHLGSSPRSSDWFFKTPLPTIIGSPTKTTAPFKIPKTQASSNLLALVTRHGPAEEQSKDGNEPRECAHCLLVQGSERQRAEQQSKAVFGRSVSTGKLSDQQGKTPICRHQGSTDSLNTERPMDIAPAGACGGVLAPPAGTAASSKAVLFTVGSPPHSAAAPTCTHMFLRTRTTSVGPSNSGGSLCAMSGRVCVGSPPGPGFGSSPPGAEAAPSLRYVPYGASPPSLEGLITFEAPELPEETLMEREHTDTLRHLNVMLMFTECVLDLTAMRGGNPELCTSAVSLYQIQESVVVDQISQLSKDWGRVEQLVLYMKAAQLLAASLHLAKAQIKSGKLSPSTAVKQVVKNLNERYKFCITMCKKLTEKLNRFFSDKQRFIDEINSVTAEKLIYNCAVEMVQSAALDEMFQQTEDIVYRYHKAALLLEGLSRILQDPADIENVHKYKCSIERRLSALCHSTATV
Chain of Aurora kinase A (Homo sapiens) (O14965 whole entry): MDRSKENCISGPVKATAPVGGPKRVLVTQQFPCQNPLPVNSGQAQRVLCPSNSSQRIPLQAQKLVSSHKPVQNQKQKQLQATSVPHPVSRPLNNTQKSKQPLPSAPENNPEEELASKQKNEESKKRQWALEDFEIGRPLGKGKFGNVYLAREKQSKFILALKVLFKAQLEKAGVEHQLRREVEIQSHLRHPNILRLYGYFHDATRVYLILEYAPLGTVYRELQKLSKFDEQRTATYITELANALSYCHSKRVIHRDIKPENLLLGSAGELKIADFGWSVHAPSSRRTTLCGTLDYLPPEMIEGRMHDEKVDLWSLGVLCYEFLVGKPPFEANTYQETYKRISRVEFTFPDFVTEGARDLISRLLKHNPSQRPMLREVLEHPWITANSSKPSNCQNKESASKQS
Chain of Cyclin-dependent kinase 15 (Homo sapiens) (Q96Q40 whole entry, the tested form may be a part): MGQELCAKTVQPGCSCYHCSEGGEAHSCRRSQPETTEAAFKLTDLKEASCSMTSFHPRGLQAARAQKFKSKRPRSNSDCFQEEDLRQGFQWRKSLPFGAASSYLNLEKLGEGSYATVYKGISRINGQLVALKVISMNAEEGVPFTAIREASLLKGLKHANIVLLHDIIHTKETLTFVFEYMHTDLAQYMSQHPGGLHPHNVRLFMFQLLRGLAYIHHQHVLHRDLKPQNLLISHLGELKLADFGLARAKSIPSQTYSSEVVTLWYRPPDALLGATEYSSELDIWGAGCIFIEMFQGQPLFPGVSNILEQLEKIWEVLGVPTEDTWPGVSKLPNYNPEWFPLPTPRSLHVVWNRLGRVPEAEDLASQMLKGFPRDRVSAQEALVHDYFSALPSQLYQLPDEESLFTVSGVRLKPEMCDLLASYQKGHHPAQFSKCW

**Q.** For COc1cccc(CNC(=O)c2nc3scc(COCc4ccc(C(=O)O)cc4)c3c(=O)[nH]2)c1 [T-26c], which Ki (Histamine H1 receptor) is on record?
**A.** 98 nM

**Q.** And the residual activity [1]?
**A.** 86%

**Q.** And the residual activity [2]?
**A.** 96.2%

**Q.** What about the residual activity [3] of the same compound?
**A.** 82.8%

**Q.** And the residual activity [4]?
**A.** 83.8%

**Q.** What about the residual activity [5] of the same compound?
**A.** 100%

**Q.** And the residual activity [6]?
**A.** 70%

**Q.** And the residual activity [7]?
**A.** 95.6%

**Q.** And the residual activity [8]?
**A.** 67.1%

**Q.** What about the residual activity [9] of the same compound?
**A.** 100%

**Q.** What about the residual activity [10] of the same compound?
**A.** 72%

**Q.** What about the residual activity [11] of the same compound?
**A.** 74%

**Q.** What about the residual activity [12] of the same compound?
**A.** 80.9%

**Q.** What about the residual activity [13] of the same compound?
**A.** 100%

**Q.** What about the inhibition [14] of the same compound?
**A.** 53.4%

**Q.** And the residual activity [15]?
**A.** 70.8%

**Q.** And the residual activity [16]?
**A.** 89.7%

**Q.** What about the residual activity [17] of the same compound?
**A.** 87.4%

**Q.** And the inhibition [18]?
**A.** 9.28%

**Q.** And the residual activity [19]?
**A.** 100%

**Q.** What about the residual activity [20] of the same compound?
**A.** 59.7%

**Q.** And the residual activity [21]?
**A.** 97.6%

**Q.** And the residual activity [22]?
**A.** 80.6%

**Q.** And the residual activity [23]?
**A.** 92.1%

**Q.** And the residual activity [24]?
**A.** 100%

**Q.** What about the residual activity [25] of the same compound?
**A.** 100%

**Q.** What about the residual activity [26] of the same compound?
**A.** 87.7%

**Q.** And the residual activity [27]?
**A.** 86.1%

**Q.** What about the residual activity [28] of the same compound?
**A.** 100%

**Q.** What about the residual activity [29] of the same compound?
**A.** 58.6%

**Q.** What about the residual activity [30] of the same compound?
**A.** 86.4%

**Q.** What about the residual activity [31] of the same compound?
**A.** 100%

**Q.** What about the residual activity [32] of the same compound?
**A.** 85.7%

**Q.** What about the residual activity [33] of the same compound?
**A.** 69.3%

**Q.** What about the residual activity [34] of the same compound?
**A.** 99.6%

**Q.** And the residual activity [35]?
**A.** 92.9%

**Q.** What about the residual activity [36] of the same compound?
**A.** 62.6%

**Q.** And the residual activity [37]?
**A.** 92.5%

**Q.** And the residual activity [38]?
**A.** 100%

**Q.** And the residual activity [39]?
**A.** 100%

**Q.** And the residual activity [40]?
**A.** 100%

**Q.** And the residual activity [41]?
**A.** 100%

**Q.** What about the residual activity [42] of the same compound?
**A.** 58.6%

**Q.** And the residual activity [43]?
**A.** 98%

**Q.** What about the inhibition [44] of the same compound?
**A.** -1.39%

From ChEMBL document CHEMBL4507300 (2021)
